Several values for one entry are separate records, joined by “and”; a condition that tells them apart may be missing. Equal entries are not always repeated.
Experiments:
nAChRs [1] = target: nAChRs (Mus musculus, UniProt O70174+Q9ERK7)
Procedure: (§1) Neurotransmitter Release from Striatal Synaptosomes. After a mouse was sacrificed by cervical dislocation, its brain was removed and placed immediately on an ice-cold platform and brain regions were dissected. Tissues from each mouse were homogenized in 0.5 ml of ice-cold 0.32 M sucrose buffered with 5 mM HEPES, pH 7.5. A crude synaptosomal pellet was prepared by centrifugation at 12,000 g for 20 min. The pellets were resuspended in “uptake buffer”: 128 mM NaCl, 2.4 mM KCl, 3.2 mM CaCl2, 1.2 mM KH2PO4, 1.2 mM MgSO4, 25 mM HEPES, pH 7.5, 10 mM glucose. For DA uptake, buffer was supplemented with 1 mM ascorbic acid and 0.01 mM pargyline, whereas for GABA uptake, buffer was supplemented with 1 mM aminooxyacetic acid. For [^3H]GABA uptake, synaptosomes were incubated for 10 min at 37° C. […] For DA uptake, synaptosomes were incubated at 37° C. in uptake buffer for 10 min before addition of 100 nM [^3H]dopamine (1 μCi for every 0.2 ml of synaptosomes), and the suspension was incubated for an additional 5 min.
(§2) All experiments were conducted at room temperature using methods described previously (Nashmi et al., 2007; Salminen et al., 2007) with modifications for collection into 96-well plates. In brief, aliquots of synaptosomes (80 μl) were distributed onto filters and perfused with buffer (uptake buffer containing 0.1% bovine serum albumin and 1 μM atropine with 1 μM nomifensine (for DA release) or 0.1 μM NNC-711 [1-(2-(((diphenylmethylene)amino)oxy)ethyl)-1,2,5,6-tetrahydro-3-pyridinecarboxylic acid hydrochloride]) (for GABA release) at 0.7 ml/min for 10 min, or buffer for 5 min followed by buffer with 50 nM αCtxMII. […] Fractions (−0.1 ml) were collected for 4 min into 96-well plates every 10 sec starting from 1 min before stimulation, using a Gilson FC204 fraction collector with a multicolumn adapter (Gilson, Inc.; Middleton, Wis.). Radioactivity was determined by scintillation counting using a 1450 MicroBeta Trilux scintillation counter (Perkin Elmer Life Sciences-Wallac Oy; Turku, Finland) after addition of 0.15 ml Optiphase ‘SuperMix’ scintillation cocktail. Instrument efficiency was 40%.
(§3) Data were analyzed using SigmaPlot 5.0 for DOS. Perfusion data were plotted as counts per minute versus fraction number. Fractions collected before and after the peak were used to calculate baseline as a single exponential decay. The calculated baseline was subtracted from the experimental data. Fractions that exceeded baseline by 10% or more were sunmmed to give total released cpm and then normalized to baseline to give units of release [(cpm-baseline)/baseline]. Agonist dose response data were fit to the Hill equation.

α4β2* nAChRs = α4β2* nAChRs (Mus musculus, UniProt O70174+Q9ERK7)
α4β2* nAChRs, sequence (Q9ERK7 26-501): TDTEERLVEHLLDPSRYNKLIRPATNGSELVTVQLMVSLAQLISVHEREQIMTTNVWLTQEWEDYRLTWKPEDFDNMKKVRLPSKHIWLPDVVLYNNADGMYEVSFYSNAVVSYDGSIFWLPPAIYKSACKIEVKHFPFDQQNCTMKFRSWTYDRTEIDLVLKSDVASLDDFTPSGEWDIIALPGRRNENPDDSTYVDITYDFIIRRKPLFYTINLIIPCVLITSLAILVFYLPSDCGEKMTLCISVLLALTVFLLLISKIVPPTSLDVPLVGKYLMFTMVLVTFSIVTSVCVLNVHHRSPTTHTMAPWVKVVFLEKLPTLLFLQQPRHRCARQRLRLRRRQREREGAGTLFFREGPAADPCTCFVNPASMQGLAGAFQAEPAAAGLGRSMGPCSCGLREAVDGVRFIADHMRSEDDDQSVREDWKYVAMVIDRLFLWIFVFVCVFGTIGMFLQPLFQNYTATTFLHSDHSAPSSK
α4β2* nAChRs, sequence (O70174 31-629): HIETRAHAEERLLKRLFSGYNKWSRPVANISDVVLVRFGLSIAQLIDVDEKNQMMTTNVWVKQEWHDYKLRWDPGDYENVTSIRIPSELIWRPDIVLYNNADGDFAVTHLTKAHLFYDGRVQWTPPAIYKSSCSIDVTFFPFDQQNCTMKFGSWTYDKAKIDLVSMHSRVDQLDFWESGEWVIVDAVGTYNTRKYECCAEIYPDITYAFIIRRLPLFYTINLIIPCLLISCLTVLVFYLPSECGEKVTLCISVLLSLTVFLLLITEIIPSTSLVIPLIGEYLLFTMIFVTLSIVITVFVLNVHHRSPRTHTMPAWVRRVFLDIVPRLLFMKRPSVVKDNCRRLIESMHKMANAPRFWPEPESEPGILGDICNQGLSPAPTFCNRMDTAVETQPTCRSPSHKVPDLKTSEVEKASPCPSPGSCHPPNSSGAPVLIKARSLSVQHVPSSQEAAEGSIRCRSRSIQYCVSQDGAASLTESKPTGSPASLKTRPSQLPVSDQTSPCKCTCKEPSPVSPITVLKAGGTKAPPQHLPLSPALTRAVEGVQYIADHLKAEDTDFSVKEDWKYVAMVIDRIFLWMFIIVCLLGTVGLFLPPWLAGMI
Procedure: as §1, §2, §3

α6* nAChRs [2] = test system: α6* nAChRs
Procedure: as §1, §2, §3

[3] = target: αCtxMII-resistant receptors (Mus musculus, UniProt O70174+Q9ERK7)
αCtxMII-resistant receptors, sequence (O70174 31-629, change not shown): as the sequence (O70174 31-629) above
αCtxMII-resistant receptors, sequence (Q9ERK7 26-501, change not shown): as the sequence (Q9ERK7 26-501) above

[4] = test system: substantia nigra DA and GABA neurons
nAChRs [5] = assay type: biochemical, mouse
Procedure: as §1, §2, §3

[6] = target: hypersensitive nicotinic receptors in α6L9′S VTA DA neurons (Mus musculus, UniProt Q9ERK7+Q9R0W9, L280S); assay type: cell-based
hypersensitive nicotinic receptors in α6L9′S VTA DA neurons, sequence (Q9ERK7 whole entry, looked up, stated change not applied): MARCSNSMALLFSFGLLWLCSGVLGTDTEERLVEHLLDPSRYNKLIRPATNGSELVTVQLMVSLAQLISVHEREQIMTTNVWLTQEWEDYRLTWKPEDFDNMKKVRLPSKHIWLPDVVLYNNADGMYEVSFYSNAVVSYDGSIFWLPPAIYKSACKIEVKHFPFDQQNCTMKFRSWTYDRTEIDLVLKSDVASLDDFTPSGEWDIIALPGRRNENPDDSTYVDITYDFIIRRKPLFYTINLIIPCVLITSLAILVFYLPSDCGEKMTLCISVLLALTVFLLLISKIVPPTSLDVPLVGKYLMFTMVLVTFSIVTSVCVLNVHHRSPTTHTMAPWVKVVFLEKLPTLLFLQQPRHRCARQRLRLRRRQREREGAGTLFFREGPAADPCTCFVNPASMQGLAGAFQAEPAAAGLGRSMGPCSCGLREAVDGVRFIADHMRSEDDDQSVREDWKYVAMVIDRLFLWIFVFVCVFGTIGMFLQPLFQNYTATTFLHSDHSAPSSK
hypersensitive nicotinic receptors in α6L9′S VTA DA neurons, sequence (Q9R0W9 whole entry, looked up, stated change not applied): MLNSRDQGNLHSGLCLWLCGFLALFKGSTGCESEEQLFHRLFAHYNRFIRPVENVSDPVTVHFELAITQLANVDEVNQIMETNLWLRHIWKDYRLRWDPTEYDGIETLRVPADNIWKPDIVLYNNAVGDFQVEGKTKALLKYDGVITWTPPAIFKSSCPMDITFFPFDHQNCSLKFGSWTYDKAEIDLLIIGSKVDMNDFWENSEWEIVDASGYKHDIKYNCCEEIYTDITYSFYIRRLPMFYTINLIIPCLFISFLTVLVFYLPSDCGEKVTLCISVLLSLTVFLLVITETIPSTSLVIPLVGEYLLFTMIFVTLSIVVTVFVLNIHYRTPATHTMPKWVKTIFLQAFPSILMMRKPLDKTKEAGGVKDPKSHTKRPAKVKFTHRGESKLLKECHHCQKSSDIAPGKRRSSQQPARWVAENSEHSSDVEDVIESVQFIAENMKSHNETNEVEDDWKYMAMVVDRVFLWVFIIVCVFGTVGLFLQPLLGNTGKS

[7] = test system: αCtxMII-sensitive receptors (α6*)
WT and α6^L9′S mice = conditions: mouse, in vivo
α6* nAChRs [8] = target: T1, α6* nAChRs (Mus musculus, UniProt Q9ERK7+Q9R0W9); assay: biochemical; assay type: biochemical
T1 construct: from tissue
T1 sequence (Q9R0W9 31-494): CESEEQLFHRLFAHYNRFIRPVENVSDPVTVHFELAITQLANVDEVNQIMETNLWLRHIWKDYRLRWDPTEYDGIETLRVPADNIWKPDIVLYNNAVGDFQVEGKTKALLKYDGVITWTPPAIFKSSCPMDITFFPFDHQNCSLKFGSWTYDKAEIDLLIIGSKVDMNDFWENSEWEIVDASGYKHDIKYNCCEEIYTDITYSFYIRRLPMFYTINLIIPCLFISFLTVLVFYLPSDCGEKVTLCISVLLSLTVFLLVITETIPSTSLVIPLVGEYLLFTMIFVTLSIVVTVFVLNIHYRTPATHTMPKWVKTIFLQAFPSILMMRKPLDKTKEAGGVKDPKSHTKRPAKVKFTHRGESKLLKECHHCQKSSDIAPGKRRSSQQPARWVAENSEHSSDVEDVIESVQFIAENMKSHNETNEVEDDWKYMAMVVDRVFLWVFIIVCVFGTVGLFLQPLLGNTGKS
T1 sequence (Q8BMN3 31-464, further chain): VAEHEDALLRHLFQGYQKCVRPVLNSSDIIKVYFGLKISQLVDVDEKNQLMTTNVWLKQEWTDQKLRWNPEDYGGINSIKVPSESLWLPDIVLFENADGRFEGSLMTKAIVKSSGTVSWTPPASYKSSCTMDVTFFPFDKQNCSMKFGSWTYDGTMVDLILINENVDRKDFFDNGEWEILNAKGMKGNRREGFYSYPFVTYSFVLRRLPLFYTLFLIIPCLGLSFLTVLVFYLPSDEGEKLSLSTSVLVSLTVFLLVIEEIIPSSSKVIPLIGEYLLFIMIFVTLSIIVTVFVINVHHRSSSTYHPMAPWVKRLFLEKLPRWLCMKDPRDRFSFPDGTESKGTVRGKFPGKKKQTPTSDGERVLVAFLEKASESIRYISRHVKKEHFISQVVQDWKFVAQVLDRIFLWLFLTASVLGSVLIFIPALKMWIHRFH
T1 sequence (Q9ERK7 26-501): as the sequence (Q9ERK7 26-501) above
Procedure: as §1, §2, §3

α6* nAChRs [9] = target: T2, α6* nAChRs (Mus musculus, UniProt Q9ERK7+Q9R0W9, L280S); assay: biochemical; assay type: biochemical
T2 construct: from tissue
T2 sequence (Q9ERK7 26-501, stated change not applied): as the sequence (Q9ERK7 26-501) above
T2 sequence (Q8BMN3 31-464, further chain): as the sequence (Q8BMN3 31-464, further chain) above
T2 sequence (Q9R0W9 31-494 L280S): as the sequence (Q9R0W9 31-494) above, with L250S counted along it
Procedure: as §1, §2, §3

α4β2* (non-α6) nAChRs = target: T3, α4β2* (non-α6) nAChRs (Mus musculus, UniProt O70174+Q9ERK7); assay: biochemical; assay type: biochemical
T3 construct: from tissue; host or cells: striatal / olfactory tubercle synaptosomes of WT and α6L9′S mice
T3 sequence (Q9ERK7 26-501): as the sequence (Q9ERK7 26-501) above
T3 sequence (O70174 31-629): as the sequence (O70174 31-629) above
Procedure: as §1, §2, §3

[10] = in vivo; cited from earlier work
LC neurons (α6* nAChRs) = assay type: cell-based, mouse
α6^L9′S mice = conditions: mouse, in vivo
Procedure: Locomotor Activity. Mice used to study locomotion were eight to sixteen weeks old by the beginning of an experiment, and were back-crossed to C57BL/6 at least three times. […] Mouse horizontal locomotor activity was measured with an infrared photobeam activity cage system (San Diego Instruments; San Diego, Calif.). Ambulation events were recorded when two contiguous photobeams were broken in succession. Acute locomotor activity in response to nicotinic ligands or other agents was studied by recording ambulation events during four 15 sec intervals per minute for a designated number of minutes. For most experiments, groups of eight mice were placed in the activity cages (18×28 cm) and their baseline level of activity was recorded for eight minutes. Mice were removed from their cage, injected (100 μl per 25 g body mass), and returned to the cage within 15 sec. […] For generation of locomotor activity concentration-response relationship profiles, a group of mice was administered saline and, after five to eight days off, each successive dose of drug. […] For 48 h home cage monitoring, mice were isolated in their own cage and habituated to the test room and cage for 24 h. Following this, locomotor activity was recorded in 15 min intervals for 48 h.

[11] = in vivo; cited from earlier work; remark: listed apart in the source

nAChRs (Mus musculus, UniProt O70174+Q9ERK7), sequence (Q9ERK7 26-501): as the sequence (Q9ERK7 26-501) above
nAChRs (Mus musculus, UniProt O70174+Q9ERK7), sequence (O70174 31-629): as the sequence (O70174 31-629) above

CN1CCCC1c1cccnc1 (single isomer, unassigned) [nicotine]
firing rate in response to local application (VTA DA neurons): significant increase in the firing rate
Rmax (±SEM), Total GABA release (nAChRs [1]): 1.64 ± 0.32 and 1.25 ± 0.06 and 1.22 ± 0.11
Rmax (±SEM), MII-resistant GABA release (α4β2* nAChRs): 1.40 ± 0.08 and 1.26 ± 0.08 and 1.30 ± 0.10
EC50 (±SEM), MII-sensitive GABA release (α6* nAChRs [2]): no activity
Rmax (±SEM), MII-sensitive GABA release (α6* nAChRs [2]): no activity
αCtxMII-resistant 86Rb+ efflux [3]: unchanged
average responses (peak current) in GABA neurons [4]: < 10 pA
responses in WT DA and GABA neurons [4]: undetectable
Rmax (±SEM), Total DA release (nAChRs [5]): 33.1 ± 2.1 and 36.0 ± 1.3 and 34.3 ± 1.7 and 20.9 ± 1.0 and 21.4 ± 0.9 and 20.8 ± 1.2
Total DA release by 10 μM nic (positive control) (nAChRs [5]): 16.69 and 19.68 and 20.65 and 17.70 and 17.30 and 16.70
inward currents elicited by puffs of 1 μM [6]: larger than those seen in WT neurons at any concentration
αCtxMII-sensitive 86Rb+ efflux [7]: hypersensitive to nicotine relative to WT
hypothermia response, WT versus α6^L9′S mice (WT and α6^L9′S mice): No difference was found
MII-sensitive DA release by 10 μM nic (positive control) (α6* nAChRs [8]): 3.19 and 1.63
Rmax (±SEM), MII-sensitive DA release (α6* nAChRs [8]): 5.41 ± 0.54 and 7.03 ± 0.86
MII-sensitive DA release by 10 μM nic (positive control) (α6* nAChRs [9]): 8.53 and 5.97 and 10.77 and 10.39
MII-resistant DA release by 10 μM nic (positive control) (α4β2* (non-α6) nAChRs): 14.55 and 8.75 and 10.78 and 15.07 and 8.91 and 10.26
concentration in the cerebrospinal fluid of smokers [10]: ≤ 500 nM
responses to locally applied nicotine in LC neurons (LC neurons (α6* nAChRs)): larger responses
tolerance or sensitization: change in locomotor behavior after repeated injections (α6^L9′S mice): did not produce any change in locomotor behavior
elimination half life [11]: ~7 min

Reference: patent US20090100532A1, “TRANSGENIC MICE EXPRESSING HYPERSENSITIVE NICOTINIC RECEPTORS” (CALIFORNIA INSTITUTE OF TECHNOLOGY, priority 2007, published 2009)
